Assay results taken from patent EP4299131A1, “HYDROPHILIC PHENALENONES AND THEIR USE IN ANTIMICROBIAL PHOTODYNAMIC THERAPY” (Centre national de la recherche scientifique, priority 2022, dated 2024).
Read-outs that look alike come from different tables or passages of the source.

Columns and labels:
[1] = UV/Visible and fluorescence spectroscopy, fluorescence lifetime (TCSPC); format: physicochemical; conditions: for ΦF (fluorescence quantum yield): 6-ethoxyphenalenone as actinometer; for ε: at the longest-wavelength absorption maximum; for λmax(em): excited at 400 nm
Method: UV/Visible and fluorescence spectroscopy: UV-Vis spectra were recorded on an Agilent 8453 Diode-Array spectrophotometer in the range of 250-700 nm. Emission spectra were measured in an ISS PC1 spectrofluorometer at room temperature. Fluorescence quantum yields were determined using equation (1) and 6-ethoxy-phenalenone in methanol as reference. ΦF,sample = ΦF,reference (Areference)/(Asample)(Isample)/(Ireference)(((ηsample)/(ηreference)))^2 [formula] ΦF is the fluorescence quantum yields. A: is the absorbance in the wavelength of excitation, I correspond to area of the emission spectra and η is the refractive index of the solvent. The excitation wavelength was 400 nm for all steady state fluorescence experiments.
Luminescence lifetime measurements were carried out using a PicoQuant FluoTime 200 fluorescence lifetime spectrometer with a multichannel scaler (PicoQuant's Timeharp 250) with the time correlated single photon counting (TCSPC) method. As excitation resource laser 405 nm was employed.

[2] = Singlet oxygen quantum yield by chemical trapping with ADPA; format: physicochemical; conditions: D2O (470 nm); ADPA as chemical probe, Eosin Y as reference
Method: Chemical trapping experiments: Quantum yields of singlet oxygen produced by 1a-c was evaluated by monitoring the UV/Visible absorption change in an Agilent 8453 Diode-Array spectrophotometer of 3,3'-anthracene-9,10-diyldipropanoic acid (ADPA) which is a well-known singlet oxygen trap. […] A solution of 1a-c in deuterated water (A473nm = 0.06) was prepared and an aliquot of ADPA in deuterated water was added to reach A378nm = 0.74. The photoabsorption spectral change of ADPA solution with photosensitizers 1a-c was monitored following the decrease of the band at 382 nm. Plots of Ln(A/A0) vs. time (s) give linear graphs for which the slope is the experimental kinetic rate constant (k, s^-1) (Ao is the initial absorption intensity and A is the absorption intensity at the time t). From comparison of experimental rate constants between phenalenone derivatives 1a-c and two selected actinometers (Eosin Y and Riboflavin, see supporting information for results using Riboflavin) using optically-matched solutions, singlet oxygen quantum yields of the photosensitizers ΦΔ can be determined from the following equation: φΔ = (k)/(kref) × φΔ,ref [formula]

[3] = test system: Staphylococcus aureus CIP76.25; assay: Antibacterial photodynamic inactivation, MIC/MBC by micromethod in 96-well plates; format: cell-based
Method: (§1) To evaluate the biological activity of the molecules, the minimal inhibitory concentration (MIC) and the minimal bactericidal concentration (MBC) were determined on bacterial cultures (Staphylococcus aureus CIP76.25, Pseudomonas aeruginosa CIP76.110) by micromethod in 96-well plates. Briefly, bacterial cultures in log-phase were diluted in sterile PBS 1X at a concentration equivalent to 4×10^6 UFC/mL. Serial dilutions of different molecules were performed in PBS 1X to a final concentration from 200 to 1.5 µM and 50 µl of each dilution were added in the microplate wells. Then, 50 µl of diluted bacterial culture were added in each well. Two different plates for each strain were prepared: one plate for the dark condition and a second plate for light irradiation.
(§2) Two controls were included; a bacterial growth control with no molecule added and a negative control with PBS without bacterial inoculum and no molecules.
(§3) The microplate was incubated at 37°C for 1h in dark condition. After that, bacteria were irradiated with LED white light (total fluence: 25J/cm^2). During the time of irradiation, the second plate was maintained in the dark. Then, 100 µL of 2-fold concentrated TS broth were added in each well and the microplate was incubated at 37°C for 24h. The MIC values were determined as the lowest concentration without observed bacterial growth. For determination of the MBC, 100 µl from wells where no evident growth was observed were diluted in physiological water (NaCl 0.9%). All 10-fold serial dilutions were spread on TS agar plates using an automatic plater (easySPIRAL®, Interscience, Saint-Nom La Bretêche, France). After incubation at 37 °C for 24 h, colonies were counted to determine total CFU per mL (CFU/mL). The MBC corresponds to the concentration of the active compound for which 99.99% of the bacteria have been killed (i.e. 4 log reduction compared to the untreated control). Three independent experiments were performed with each strain.

[4] = test system: Pseudomonas aeruginosa CIP76.110; assay: as above; format: cell-based; conditions: for MBC / MIC: Pseudomonas aeruginosa
Method: as §1, §2, §3

[5] = Singlet oxygen quantum yield by 1O2 phosphorescence at 1270 nm; format: physicochemical; conditions: phosphorescence method
Method: Singlet oxygen quantum yield measurements: Lifetime decays of singlet oxygen, O2(^1Δg), were acquired with a FluoTime 200 equipped with multichannel scaler Nanoharp 200. […] For the detection at 1270 nm a NIR PMT H10330A (Hamamatsu) was employed. The O2(^1Δg) quantum yields (ΦΔ) were determined by comparing the intensity at zero time of the 1270 nm signals to those of optically-matched solutions of SAPYR or Eosin Y as references.

[6] = actinometer value of SAPYR, excitation at 355 nm, ref [27]; cited from earlier work
[7] = Photochemical stability under blue light monitored by 1H NMR; format: physicochemical; conditions: D2O, irradiation at 470 nm (3.5 mW.cm^-2) for 24h, under oxygen or Argon
Method: Photochemical stability: In an NMR tube, a solution of dyes 1a-c or SAPYR in D2O ([C] = 17.5 mmol/L) was irradiated at 470 nm (3.5 mW.cm^-2) under oxygen or Argon atmosphere (the gas was bublled solution was oxygenated or degassed by bubbling through the solution for 5 minutes and put under gas atmosphere). 1H NMR spectra were recorded after 24h irradiation time for each sample.

[8] = CIP76, S.a, dark (D), read-out: MBC
[9] = CIP76, S.a, dark (D), read-out: MIC
[10] = CIP76, light or radiation study, S.a, light (L), LED white light, total fluence 25 J/cm^2, read-out: MBC
[11] = CIP76, light or radiation study, S.a, light (L), LED white light, total fluence 25 J/cm^2, read-out: MIC
[12] = CIP76, light or radiation study, P.a, light (L), LED white light, total fluence 25 J/cm^2, read-out: MBC
[13] = CIP76, light or radiation study, P.a, light (L), LED white light, total fluence 25 J/cm^2, read-out: MIC
[14] = CIP76, P.a, dark (D), read-out: MBC
[15] = CIP76, P.a, dark (D), read-out: MIC
[16] = D2O (470 nm), Eosin Y as actinometer
[17] = D2O, SAPYR as actinometer, excitation at 355 nm
[18] = DMSO, SAPYR as actinometer, excitation at 355 nm
[19] = MeOH, SAPYR as actinometer, excitation at 355 nm
[20] = CIP76, light or radiation study

SMILES | TF (singlet lifetime) ([1]; DMSO) | Δλ (Stokes shift) ([1]; DMSO) | λabs ([1]; DMSO) | ΦF (fluorescence quantum yield) ([1]; DMSO) | ε ([1]; DMSO) | λmax(em) ([1]; DMSO) | TF (singlet lifetime) ([1]; H2O) | Δλ (Stokes shift) ([1]; H2O) | λabs ([1]; H2O) | ΦF (fluorescence quantum yield) ([1]; H2O) | ε ([1]; H2O) | λmax(em) ([1]; H2O) | TF (singlet lifetime) ([1]; MeOH) | Δλ (Stokes shift) ([1]; MeOH) | λabs ([1]; MeOH) | ΦF (fluorescence quantum yield) ([1]; MeOH) | ε ([1]; MeOH) | λmax(em) ([1]; MeOH) | ΦΔ [2] | MBC [3, 8] | also measured
COc1ccc2c3c(cc(CN(CCO)CCO)c(-c4ccccc4)c13)C(=O)C=C2.Cl [1c, 8-((bis(2-hydroxyethyl)amino)methyl)-6-methoxy-7-phenyl-1H-phenalen-1-one chloride] | 5.38 ns | 92 nm | 441 nm | 0.071 | 11984 M⁻¹ cm⁻¹ | 533 nm | 7.39 ns | 92 nm | 459 nm | 0.217 | 10053 M⁻¹ cm⁻¹ | 551 nm | 8.24 ns | 96 nm | 446 nm | 0.233 | 12256 M⁻¹ cm⁻¹ | 542 nm | 0.08 | > 200 µM | MIC [3, 9]: > 200 µM; MBC [3, 10]: 41.7 µM; MIC [3, 11]: 41.7 µM; MBC [4, 12]: 41.7 µM; MIC [4, 13]: 33 µM; MBC [4, 14]: > 200 µM; MIC [4, 15]: > 200 µM; ΦΔ [5, 16]: 0.09; ΦΔ [5, 17]: 0.06; ΦΔ [5, 18]: 0.91; ΦΔ [5, 19]: 0.15
COc1ccc2c3c(cc(C[N+](C)(C)Cc4ccccc4)c(-c4ccccc4)c13)C(=O)C=C2.[Cl-] [1a, N-benzyl-1-(6-methoxy-1-oxo-7-phenyl-1H-phenalen-8-yl)-N,N-dimethylmethanaminium chloride] | 6.04 ns | 92 nm | 441 nm | 0.069 | 11426 M⁻¹ cm⁻¹ | 533 nm | 7.65 ns | 90 nm | 459 nm | 0.241 | 9239 M⁻¹ cm⁻¹ | 549 nm | 8.15 ns | 95 nm | 447 nm | 0.221 | 9363 M⁻¹ cm⁻¹ | 542 nm | 0.09 | > 200 µM | MIC [3, 9]: 167 µM; MBC [3, 10]: 133 µM; MIC [3, 11]: 50 µM; MBC [4, 12]: > 200 µM; MIC [4, 13]: > 200 µM; MBC [4, 14]: > 200 µM; MIC [4, 15]: > 200 µM; ΦΔ [5, 16]: 0.12; ΦΔ [5, 17]: 0.06; ΦΔ [5, 18]: 0.79; ΦΔ [5, 19]: 0.10
O=C1C(C[n+]2ccccc2)=Cc2cccc3cccc1c23 [SAPYR, reference compound] | – | – | – | – | – | – | – | – | – | – | – | – | – | – | – | – | – | – | – | – | ΦΔ [6]: 1.02; photochemical stability [7]: complete decomposition; MBC [3, 20]: 167 µM; MIC [3, 20]: 83.3 µM; MBC [4, 20]: > 200 µM; MIC [4, 20]: > 200 µM; photodynamic effects ([4]; illumination under white light): did not exhibit any photodynamic effects
COc1ccc2c3c(cc(C[n+]4ccccc4)c(-c4ccccc4)c13)C(=O)C=C2.[Cl-] [1b, 1-((6-methoxy-1-oxo-7-phenyl-1H-phenalen-8-yl)methyl)pyridin-1-ium chloride] | 6.24 ns | 91 nm | 444 nm | 0.067 | 10472 M⁻¹ cm⁻¹ | 535 nm | 7.15 ns | 88 nm | 463 nm | 0.192 | 9259 M⁻¹ cm⁻¹ | 551 nm | 7.65 ns | 95 nm | 447 nm | 0.209 | 9344 M⁻¹ cm⁻¹ | 542 nm | 0.15 | > 200 µM | MIC [3, 9]: > 200 µM; MBC [3, 10]: 67 µM; MIC [3, 11]: 50 µM; MBC [4, 12]: > 200 µM; MIC [4, 13]: > 200 µM; MBC [4, 14]: > 200 µM; MIC [4, 15]: > 200 µM; ΦΔ [5, 16]: 0.11; ΦΔ [5, 17]: 0.06; ΦΔ [5, 18]: 0.63; ΦΔ [5, 19]: 0.12
